From patent publication US8802597B2, “Herbicidal pyrimidines” (E I du Pont de Nemours and Company, priority 2003, dated 2014)

CCOC(=O)c1nc(C2CC2)nc(N)c1Br [Compound 1, ethyl 6-amino-5-bromo-2-cyclopropyl-4-pyrimidinecarboxylate]
melting point: 107 to 108 °C
